PubChem BioAssay (NCI)
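Compound exposure: 48 hours, 5 concentrations, 96-well plates. TGI denotes the concentration required for complete inhibition of growth.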

Columns and labels:
Test in all cases: NCI anticancer screen, dose series, 48 h
SW-620 colon = tested on: SW-620 colon
SNB-75 CNS = tested on: SNB-75 CNS
LOX IMVI melanoma = tested on: LOX IMVI melanoma
UACC-62 melanoma = tested on: UACC-62 melanoma
NCI-H522 lung = tested on: NCI-H522 lung
ACHN renal = tested on: ACHN renal
SR leukemia = tested on: SR leukemia
UO-31 renal = tested on: UO-31 renal
HS 578T breast = tested on: HS 578T breast
SNB-19 CNS = tested on: SNB-19 CNS
U251 CNS = tested on: U251 CNS
HCC-2998 colon = tested on: HCC-2998 colon
NCI-H23 lung = tested on: NCI-H23 lung

Row | Structure (SMILES) | TGI (SW-620 colon) [µM] | TGI (SNB-75 CNS) [µM] | TGI (LOX IMVI melanoma) [µM] | TGI (UACC-62 melanoma) [µM] | TGI (NCI-H522 lung) [µM] | TGI (ACHN renal) [µM] | TGI (SR leukemia) [µM] | TGI (UO-31 renal) [µM] | TGI (HS 578T breast) [µM] | TGI (SNB-19 CNS) [µM] | TGI (U251 CNS) [µM] | TGI (HCC-2998 colon) [µM] | TGI (NCI-H23 lung) [µM]
1 | Cn1c2ccccc2c(=NNc2ccc(C(=O)O)cc2)c2ccccc21 | 65.3 | 56.5 | 24.1 | 44.1 | 27.2 | 45.6 | 42.7 | 46.9 | 55.9 | > 100 | 41 | 24.9 | 57.8
2 | COc1cc2c(cc1OC)CC(N=[N+]=[N-])c1cc(OC)c(OC)cc1/C=C\2 (stereo unspecified) | > 100 | > 100 | > 100 | > 100 | > 100 | > 100 | > 100 | > 100 | > 100 | > 100 | > 100 | > 100 | 
3 | Cc1ccc(N=C2C(=O)C3=C(OC(C)(C)CC3)c3ccccc32)cc1 | 2.14 | 2.51 |  | 2.88 | 3 | 1.54 | 1.6 | 1.96 | > 23.2 | 2.26 | 1.91 | 3.36 | 6.88
4 | CCC(CCCC[C@@H]1CC[C@H]2CC(=O)C[C@@H]12)OC (stereo partly specified) | > 100 | > 100 | > 100 | > 100 | > 100 | > 100 | > 100 |  | > 100 | > 100 | > 100 | > 100 | > 100
5 | COc1cccc(-c2cc(=O)c3c(C)ccnc3[nH]2)c1 | > 100 | 0.0417 | > 100 | > 100 | 0.226 | > 100 | 0.0396 | > 100 | > 100 | > 100 | > 100 | 0.27 | > 100
6 | CN(C)Cc1cc(N=Nc2ccccc2)cc(CN(C)C)c1O | > 100 | > 100 | > 100 | > 100 | > 100 | > 100 | > 100 | > 100 | > 100 | > 100 | > 100 | > 100 | > 100
7 | C1=C\CCCCN2C[C@H]3CCCC/C=C\CCCCN4CC[C@@H]([C@H](CCCCCC/1)C4)[C@H](C3)C2 | 6.71 | 5.46 | 3.22 | 3.67 | 3.33 | 4.06 | > 19.8 | 3.16 | 4.34 | 5.3 | 3.41 | 2.01 | 18.9
8 | O=[N+]([O-])c1cccnc1NCC1(CO)CC(Cc2ccccc2)C1 (stereo unspecified) | > 100 | > 100 | > 100 | > 100 | > 100 | > 100 | > 100 | > 100 | > 100 |  | > 100 | > 100 | > 100
9 | CC(C)=CCC/C(C)=C/CC/C(C)=C/CC/C(C)=C/CC/C(C)=C\CC/C(C)=C/CC/C(C)=C/CC/C(C)=C/Cc1cc(O)ccc1O | > 100 | 11.6 |  | 0.857 | 4.34 | > 39.8 | 1.8 | 5.71 | 8.93 | > 43.6 | 4.06 | > 48.8 | 1.96
10 | COCc1cc2c(cc1/C=C/[N+](=O)[O-])OCO2 | 40.7 | 31.9 | 67.9 | 32 | 41.2 | 30.9 | > 100 | 30.9 | 44.3 |  | 31.6 | 32 | 44
11 | CC[C@H]1OC([C@H](O)C/C=C\C#C[Si](C)(C)C)C/C=C\C[C@H]1O[Si](C)(C)C(C)(C)C (stereo partly specified) | > 100 | > 100 | 36.3 | > 100 | > 100 | > 100 | > 100 | > 100 | > 100 | > 100 | > 100 | > 100 | > 100
12 | CC1C[C@]2(C)C(=O)N(c3ccccc3)C(=N)[C@@H]2N(C)c2ccccc21 (stereo partly specified) | > 100 | > 100 | > 100 | > 100 | > 100 | > 100 | > 100 | > 100 | > 100 | > 100 |  | > 100 | > 100
13 | C(=C\C(SCc1ccccc1)SCc1ccccc1)/c1ccccc1 | > 10 | > 10 | > 10 | > 10 | > 10 | > 10 | > 10 | > 10 | > 10 | > 10 | > 10 | > 10 | > 10
14 | O=C1CCCCc2cccc(O)c21 | > 100 | > 100 | > 100 | > 100 | > 100 | > 100 | > 100 | > 100 | > 100 | > 100 | > 100 | > 100 | > 100
15 | CN(C)c1ccc(/C=C/C=C(/C#N)c2ccccc2)cc1 | 72.5 | 76 | > 74.3 | > 100 | > 65.7 | > 100 | > 39.7 | > 100 | 69.2 | > 88.1 | 55.5 | > 85.3 | 97.6
16 | COc1ccc2c3c1OC1c4[nH]c5ccccc5c4CC4(O)C(C2)N(C)CCC314 (stereo unspecified) | > 100 | > 100 | 52 | 57.3 | 81.4 | 75.6 | 37 | 28.1 | 67.7 | > 100 | 44.8 | 31 | > 100
17 | N#CC1(C#N)NC(c2ccsc2)C(C#N)(C#N)NC1c1ccsc1 (stereo unspecified) | > 100 | > 100 | > 100 | > 100 | > 100 | > 100 | > 100 | > 100 | > 100 | > 100 | > 100 | > 100 | > 100
18 | O=c1[nH]nc(Cc2ccccc2)n1Nc1ccccc1 | > 100 | > 100 | > 100 | > 100 | > 100 | > 100 | > 100 | > 100 | > 100 |  | > 100 | > 100 | > 100
